In ChEMBL document CHEMBL3596190, “Non-classical -carbonic anhydrase inhibitors-towards novel anti-mycobacterials” (Medchemcomm, 2014):
Converted amounts (≈) assume the structure as drawn. The source made the active and inactive calls. The calls are words filed in the database; no cut-off is given here.

What was measured:
BL21-AI [1] = settings: Mycobacterium tuberculosis, at 25 µM
Description: Inhibition of His6-tagged Mycobacterium tuberculosis Rv3588c expressed in Escherichia coli BL21-AI cells assessed as reduction in Vmax at 25 uM by stopped flow CO2 hydration assay based Michaelis-Menten analysis

[2] = Inhibition of His6-tagged Mycobacterium tuberculosis Rv3588c expressed in Escherichia coli BL21-AI cells by stopped flow CO2 hydration assay based Michaelis-Menten analysis; format: cell-based
[3] = test system: Mycobacterium tuberculosis; experiment: Effect on quaternary structure of un-tagged Mycobacterium tuberculosis beta-carbonic anhydrase Rv3588c at pH 6.0 by size exclusion chromatography
BL21-AI [4] = experiment: Inhibition of His6-tagged Mycobacterium tuberculosis Rv3588c expressed in Escherichia coli BL21-AI cells assessed as increase in Hill coefficient at 25 uM by stopped flow CO2 hydration assay based Michaelis-Menten analysis
[5] = biological target: T1, Beta-carbonic anhydrase 1 (Mycobacterium tuberculosis) (UniProt P9WPJ7); experiment: Binding affinity to His6-tagged Mycobacterium tuberculosis Rv1284 expressed in Escherichia coli BL21-AI cells assessed as […] in melting temperature at 250 uM by SYPRO orange dye based differential scanning fluorimetry
T1 sequence (whole entry): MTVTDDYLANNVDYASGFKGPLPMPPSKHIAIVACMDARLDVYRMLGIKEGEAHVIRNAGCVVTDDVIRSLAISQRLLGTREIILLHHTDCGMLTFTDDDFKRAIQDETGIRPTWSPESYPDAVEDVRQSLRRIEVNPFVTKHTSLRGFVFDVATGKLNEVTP

[6] = test system: Mycobacterium tuberculosis; experiment: Growth inhibition of Mycobacterium tuberculosis H37Ra incubated for 7 days by resazurin dye based fluorescence assay; format: functional; settings: 168 h
[7] = test system: Mycobacterium tuberculosis; experiment: Effect on quaternary structure of un-tagged Mycobacterium tuberculosis beta-carbonic anhydrase Rv3588c at pH 8.5 by size exclusion chromatography

Q: What does the source list for N#C[S-].[Na+] [THIOCYANATE SODIUM]?
A: inhibition (BL21-AI [1]): Active; Ki [2]: 8 µM

Q: Which Activity [3] does the source give for COc1c(Br)cc(/C=C/C(=O)NCCCNCCCCNCCCNC(=O)/C=C/c2cc(Br)c(OC)c(Br)c2)cc1Br [IANTHELLIFORMISAMINE C] here?
A: Its Activity is “inactive”.

Q: What about the inhibition (BL21-AI [4]) of the same compound?
A: The inhibition was “Active”.

Q: What about the deltaTm [5] of the same compound?
A: The deltaTm was 1 K.

Q: And the inhibition (BL21-AI [1])?
A: The inhibition was “Active”.

Q: What about the MIC90 [6] of the same compound?
A: Its MIC90 is 12.5 µM (≈ 10.5 µg/mL).

Q: What about the Ki [2] of the same compound?
A: Its Ki is 16 µM.

Q: What about the Activity [7] of the same compound?
A: Its Activity is “inactive”.

Q: For C=C1CC[C@@H](C/C=C(\C)CC/C=C(/CCC=C(C)C)C(=O)O)C(C)(C)[C@H]1CC/C(C)=C/C(=O)O, which Activity [3] is on record?
A: The Activity was “inactive”.

Q: And the inhibition (BL21-AI [4])?
A: Its inhibition is “Active”.

Q: What about the deltaTm [5] of the same compound?
A: The deltaTm was 5.4 K.

Q: What about the inhibition (BL21-AI [1]) of the same compound?
A: Its inhibition is “Active”.

Q: And the MIC90 [6]?
A: The MIC90 was greater than 50 µM.

Q: And the Ki [2]?
A: The Ki was 10 µM.

Q: And the Activity [7]?
A: Its Activity is “inactive”.

Q: What does the source list for COc1c(Br)cc(C/C(=N\O)C(=O)NCCCC(=O)N(C)CCCCN(C)CCCNC(=O)/C(Cc2cc(Br)c(OC)c(Br)c2)=N/O)cc1Br [SPERMATINAMINE]?
A: Activity [3]: inactive; inhibition (BL21-AI [4]): Active; deltaTm [5]: 1.2 K; MIC90 [6]: 6.3 µM (≈ 6.03 µg/mL); Ki [2]: 23 µM; Activity [7]: inactive
